Bridge positions count the residues as written; N and C are the ends. Square brackets hold non-standard residues; d marks the D form. Peptide text beside a SMILES is read from it. * marks the point of attachment. Ileψ(thiazoline)Cys = CC[C@H](C)[C@H](N)C1=N[C@H](C(=O)*)CS1; dOrn = NCCC[C@@H](N)C(=O)O A value given as a limit tells only on which side of the number the result lay.

These results are taken from patent publication US7309484B2, “Compositions and methods for screening antibacterial compounds” (priority 2003, dated 2007).

Assay [1] concerns liaI expression (liaI::pMUTIN lacZ fusion, strain BFS2470; also liaH::pMUTIN, BFS2469). Put plainly: Disk-diffusion assay, blue ring on X-Gal plates. On Disk-diffusion assay: key: −: no induction; +: induction of yvql expression. It counts as cell-based, Bacillus subtilis. An excerpt:
The pMUTIN-insertion results in a disruption of the targeted gene and generates a transcriptional fusion to lacZ thereby allowing detection of both antibiotic sensitivity (as defined by the zone of inhibition around the disk) and inducibility (by the formation of a blue ring at the edge of the zone of inhibition) (Cao et al., 2002, Mol Microbiol. 45: 1267-1276, the entire teaching of which is incorporated herein). The disruption of liaI and liaH had no effect on the sensitivity of the mutants to any of the antibiotics tested. […] Equivalent levels of induction were also observed with the PliaI-74-cat-lacZ fragment (in HB0950), albeit with lower fold-changes (See, Table 2). While the mode of action is different for these antibiotics, all four interfere with the lipid II cycle, essential for the biosynthesis of cell envelope polymers (Lazar et al., 2002, Curr. Opin. Chem. Biol. 6: 786-93).
PliaI induction assays: Screening for liaI induction was done by disk diffusion assay essentially as described (Cai, S. J., and M. Inouye, 2002, J Biol Chem 277:24155-61). B. subtilis strains were inoculated from a fresh overnight LB agar plate and grown to mid-log phase (OD600 ˜0.45) at 37 YC with shaking. 20 μl of the culture was mixed with 3 ml of 0.7% soft LB agar (containing 40 μg of X-Gal per plate) and poured onto the bottom agar. After cooling and drying of the plates (20 min at 37 YC), filter paper disks (6 mm diameter) carrying 5 μl of stock solution (antibiotics normally 100 mg/ml; lysozyme 10 mg/ml; tunicamycin, surfactants, uncouplers 5 mg/ml each; inhibitors of protein biosynthesis as given in the media and growth conditions section) were placed on top of the agar. The plates were incubated at 37 YC overnight. After 12-24 h incubation, the plates were scored for the appearance of a blue ring at or near the edge of the zone of growth inhibition produced by the diffusion of the antibiotics from the filter disk.

Assay [2] concerns liaI expression (pMUTIN-derived lacZ fusion, strain BFS2470). Put plainly: microbe, parasite or virus in culture. Particulars: Bacillus subtilis, 0.5 h, read-out: fold induction of liaI expression. As for the experimental part:
Disc-diffusion assays were used to determine the spectrum of stimuli that induce the expression of liaIH. The B. subtilis strains BFS2469 and BFS2470 (Table 2), harboring pMUTIN-insertions in liaH and liaI respectively, were plated on a medium containing the indicator dye X-gal and overlaid with filter disks impregnated with various antibiotics that interfere with cell wall biosynthesis. Specifically, cultures of B. subtilis strain BFS2469 (liaH::pMUTIN) and BFS2470 (liaI::pMUTIN) were grown in LB medium to midlog phase, 2 mL for the un-induced control sample were harvested, and the remaining culture was induced with the three antibiotics for 30 minutes, before the cells of the induced sample were harvested. All samples were taken in duplicate from two independent cultures and the standard deviation is indicated by error bars.
Measurement of induction by β-galactosidase assays: Cells were inoculated from fresh overnight LB-plates and grown in LB-medium at 37° C. with aeration until they reached an O.D.600=0.45. 2 mL of cultures were harvested (un-induced control) and the cell pellets were shock frozen and kept at −70° C. The cultures were induced by addition of antibiotics to a final concentration of: bacitracin (100 μg/mL), tunicamycin (50 μg/mL) or vancomycin (2 μg/mL) and incubated for additional 30 min at 37° C. 2 mL of the cultures were harvested as described above (induced sample). The pellets were re-suspended in 1 mL of working buffer and assayed for β-galactosidase activity as described with normalization to cell density (Miller, 1972, the entire teaching of which is incorporated herein by reference).
For quantitative measurements of β-galactosidase activity, cells were inoculated from fresh overnight LB-plates and grown in LB medium at 37 YC with aeration until they reached an OD600 of 0.45. 2 ml of the culture was harvested (un-induced control) and the cell pellets were frozen and kept at −80 YC. The cultures were induced by addition of the compound to be tested to the final concentration as described in the individual figure legends and incubated for an additional 30 min at 37 YC. 2 ml of the cultures were harvested as described above. The pellets were re-suspended in 1 ml of working buffer (60 mM Na2HPO4, 40 mMNaH2PO4, 10 mM KCl, 1 mM MgSO4, 4 mM DTT) and assayed for β-galactosidase activity as described with normalization to cell density Kobayashi, K., et al., 2001, J Bacteriol 183:7365-7370). […] A sample was taken after 30 min for β-galactosidase assay and the turbidity of the remaining culture was measured for at least 5 hours to monitor the concentration-dependent effects of the antibiotics on cell growth.

`CC[C@H](C)[C@H](N)C1=N[C@H](C(=O)N[C@@H](CC(C)C)C(=O)N[C@H](CCC(=O)O)C(=O)N[C@H](C(=O)N[C@H]2CCCCNC(=O)[C@H](CC(N)=O)NC(=O)[C@@H](CC(=O)O)NC(=O)[C@H](Cc3cnc[nH]3)NC(=O)[C@@H](Cc3ccccc3)NC(=O)[C@H]([C@@H](C)CC)NC(=O)[C@@H](CCCN)NC2=O)[C@@H](C)CC)CS1` [Bacitracin] ({Ileψ(thiazoline)Cys}-L[dE]IK[dOrn]I[dF]H[dD]N; lactam 4-C): the disk-diffusion assay result in assay [1] (qualitative screen of β-Galactosidase activity, blue ring at edge of zone of inhibition, LB plates with X-Gal, strain BFS2470) is recorded as “+”. Moreover, the “induction of liaI / liaH expression, in words” value in assay [1] (strains BFS2469 and BFS2470) is “induced”. The fold induction at 100 µg/mL in assay [2] is greater than 500.
